In patent US12521375B2, “Pharmaceutical composition for treating fatty liver disease” (Shionogi & Co., Ltd., priority 2020, dated 2026):
Where “and” joins values, the source holds several entries; their conditions need not be identical. Equal entries are not always repeated.

Experiments:
[1] = tested on: high-fat diet-loaded mice with spontaneous fatty liver; test: Effect on liver fibrosis progression in high-fat diet-loaded mice with spontaneous fatty liver; format: in vivo, FLS.B6-Lep<ob>/Shi mice; set-up: 3-hydroxybutyric acid in plasma: unit not given here; details: for Amount of triglyceride in liver / Sirius red-positive area rate / 3-hydroxybutyric acid in plasma / Plasma triglyceride concentration / Change in hemoglobin A1c (day 26 of administration) − (before start of administration) / Hemoglobin A1c, Before start of administration / Hemoglobin A1c, Day 26 of administration: bid; for Amount of triglyceride in liver / Sirius red-positive area rate: oral, 4 weeks; for Change in hemoglobin A1c (day 26 of administration) − (before start of administration) / Hemoglobin A1c, Before start of administration / Hemoglobin A1c, Day 26 of administration: individual animals
Experimental: Eight-week-old male FLS.B6-Lep/Shi mice were fed a high-fat diet (60 kcal % fat content, using shortening, containing 2% cholesterol and 8.7% fructose), and at the same time, the compound of the present invention was suspended in a 0.5% MC aqueous solution so as to have a dose of 5.5 to 60 mg/kg/5 mL, and orally repeatedly administered (b.i.d.) for 4 weeks. Blood was collected from the tail vein during the repeated administration period, and biochemical parameters in plasma were measured. After 4 weeks of administration, blood was collected from the abdominal vena cava under anesthesia, and then the liver was collected. Paraffin-embedded sections prepared from the collected liver were subjected to Sirius red staining. A degree of fibrosis progression in the liver was determined from a Sirius red-positive area rate and evaluated.

[2] = tested on: Malonyl-CoA concentration in organ; test: Test for evaluating malonyl-CoA concentration in liver and muscles; format: in vivo, BKS.Cg-+Lepr^db/+Lepr^db/Jcl mice; details: for Malonyl-CoA concentration in organ with vehicle administration group defined as 100%, Liver / Malonyl-CoA concentration in organ with vehicle administration group defined as 100%, Muscle: 2 hours after administration; for malonyl-CoA concentrations in the liver and muscles (in words): 0.3 to 6 mg/kg oral
Experimental: Eight-week-old male BKS.Cg-+Lepr^db/+Lepr^db/Jcl mice were fasted for 4 hours, then the compound of the present invention was orally administered at a dose of 0.3 to 6 mg/5 mL/kg, and 2 hours after administration, the mice were killed by exsanguination through whole blood collection from the abdominal vena cava under anesthesia. Then, the liver and muscles were removed, and a 9% homogenate was prepared in a homogenizing buffer (distilled water: 60% perchloric acid: 85% phosphoric acid=43:5:2). The malonyl-CoA concentration in the tissue was quantified by LC/MS/MS.

[3] = target: recombinant human ACC1 (Homo sapiens (Human), UniProt Q13085); test: Measurement of inhibitory activity of human ACC1; format: biochemical; details: read-out: IC50 hACC1
Source text: A cDNA encoding human ACC1 protein (1 amino acid residue to 2346 amino acid residues from the N-terminus) was cloned from a human liver cDNA library (BioChain Institute Inc.), myc tag and His-tag sequences were introduced at the 3′ end, and then inserted into pIEXBAC3 (Novagen). A recombinant baculovirus was produced in accordance with the protocol for FlashBACGOLD (Oxford Expression Technologies Ltd.), and Sf-9 cells were infected therewith to express human ACC1 protein. The recovered cells were crushed, filtered through a filter, and then subjected to Ni affinity chromatography and anion exchange chromatography. Fractions containing human ACC1 protein were collected to obtain recombinant human ACC1.
The recombinant human ACC1 and the recombinant human ACC2 obtained from the above Preparation Examples were preincubated in an assay buffer (50 mM HEPES-KOH (pH 7.4), 10 mM magnesium chloride, 6 to 10 mM potassium citrate, 4 mM reduced glutathione, and 1.5 mg/ml bovine serum albumin) for 1 hour. Then, 5 μL of the pre-incubated enzyme solution and 5 μL of a substrate solution (50 mM HEPES-KOH (pH 7.4), 1 mM ATP, 0.8 mM acetyl-CoA, and 25 to 50 mM potassium bicarbonate) were added to a 384-well microplate into which 0.2 μL of each of solutions of the compound of the present invention (DMSO) had been dispensed, and the mixture was centrifuged and shaken, and then incubated in a wet box at room temperature for 1 to 3 hours. After incubation, the enzymatic reaction was stopped by addition of EDTA, and then the compound was co-crystallized with an α-cyano-4-hydroxy cinnamic acid (CHCA) matrix on a MALDI target plate, and measurement was performed in a reflector negative mode using a matrix-assisted laser desorption ionization-time-of-flight mass spectrometer (MALDI-TOF MS). Deprotonated ions of the substrate acetyl-CoA (AcCoA) and the reaction product malonyl-CoA (MalCoA) were detected, and the intensity of each signal was used to calculate a conversion rate to malonyl-CoA […], i.e., intensity of [MalCoA-H]-/(intensity of [MalCoA-H]-+intensity of [AcCoA-H]-). […] The potassium citrate concentration in the assay buffer, the potassium bicarbonate concentration in the substrate solution, and the incubation time were adjusted within the above concentrations or reaction times for each lot of the enzyme to be used.

C[C@@H](CO[C@H]1CC[C@H](Oc2nc3c(F)cc(OC4CC4)cc3n2C)CC1)NC(N)=O [Compound I-12]
Amount of triglyceride in liver ([1]; 5.5 mg/kg): 451 ± 17 mg/g tissue
Sirius red-positive area rate ([1]; 5.5 mg/kg): 1.26 ± 0.13 %
3-hydroxybutyric acid in plasma ([1]; 5.5 mg/kg, Week 0): 184 ± 20
Plasma triglyceride concentration ([1]; 5.5 mg/kg, Week 0): 790 ± 95 mg/dL
3-hydroxybutyric acid in plasma ([1]; 5.5 mg/kg, Week 1): 470 ± 93
Plasma triglyceride concentration ([1]; 5.5 mg/kg, Week 1): 369 ± 32 mg/dL
3-hydroxybutyric acid in plasma ([1]; 5.5 mg/kg, Week 2): 1108 ± 120
Plasma triglyceride concentration ([1]; 5.5 mg/kg, Week 2): 464 ± 30 mg/dL
3-hydroxybutyric acid in plasma ([1]; 5.5 mg/kg, Week 4): 1354 ± 170
Plasma triglyceride concentration ([1]; 5.5 mg/kg, Week 4): 513 ± 23 mg/dL
Amount of triglyceride in liver ([1]; 11 mg/kg): 441 ± 11 mg/g tissue
Sirius red-positive area rate ([1]; 11 mg/kg): 1.52 ± 0.18%
3-hydroxybutyric acid in plasma ([1]; 11 mg/kg, Week 0): 178 ± 8.7
Plasma triglyceride concentration ([1]; 11 mg/kg, Week 0): 619 ± 76 mg/dL
3-hydroxybutyric acid in plasma ([1]; 11 mg/kg, Week 1): 449 ± 140
Plasma triglyceride concentration ([1]; 11 mg/kg, Week 1): 382 ± 44 mg/dL
3-hydroxybutyric acid in plasma ([1]; 11 mg/kg, Week 2): 1314 ± 370
Plasma triglyceride concentration ([1]; 11 mg/kg, Week 2): 497 ± 39 mg/dL
3-hydroxybutyric acid in plasma ([1]; 11 mg/kg, Week 4): 1508 ± 380
Plasma triglyceride concentration ([1]; 11 mg/kg, Week 4): 500 ± 27 mg/dL
Sirius red-positive area rate vs vehicle administration group (in words) ([1]; dose of 5.5 mg/kg): significantly lower than that of the vehicle administration group
amount of triglyceride in the liver vs vehicle administration group (in words) ([1]; mouse, in vivo): not significantly different from that in the vehicle administration group
concentration of 3-hydroxybutyric acid in plasma vs vehicle administration group (in words) ([1]; mouse, in vivo): tended to be higher than that in the vehicle administration group
plasma triglyceride concentration vs vehicle administration group (in words) ([1]; mouse, in vivo): not significantly different from that in the vehicle administration group
Malonyl-CoA concentration in organ with vehicle administration group defined as 100%, Liver ([2]; 0.67 mg/kg oral): 92.8%
Malonyl-CoA concentration in organ with vehicle administration group defined as 100%, Muscle ([2]; 0.67 mg/kg oral): 70.8%
Malonyl-CoA concentration in organ with vehicle administration group defined as 100%, Liver ([2]; 2 mg/kg oral): 91.1%
Malonyl-CoA concentration in organ with vehicle administration group defined as 100%, Muscle ([2]; 2 mg/kg oral): 59.5%
Malonyl-CoA concentration in organ with vehicle administration group defined as 100%, Liver ([2]; 6 mg/kg oral): 84.0%
Malonyl-CoA concentration in organ with vehicle administration group defined as 100%, Muscle ([2]; 6 mg/kg oral): 56.4%
malonyl-CoA concentrations in the liver and muscles (in words) [2]: reduced malonyl-CoA concentrations in the liver and muscles in a compound dose-dependent manner
IC50 [3]: 6.9 µM

CC(=O)N[C@@H](C)CC[C@H]1OC[C@H](Oc2nc3c(F)cc(OC4CC4)cc3n2C)CO1 [Compound I-13]
Amount of triglyceride in liver ([1]; 30 mg/kg): 234 ± 21 mg/g tissue
Sirius red-positive area rate ([1]; 30 mg/kg): 3.05 ± 0.28 %
3-hydroxybutyric acid in plasma ([1]; 30 mg/kg, Week 0): 252 ± 73
Plasma triglyceride concentration ([1]; 30 mg/kg, Week 0): 680 ± 81 mg/dL
3-hydroxybutyric acid in plasma ([1]; 30 mg/kg, Week 1): 397 ± 140
Plasma triglyceride concentration ([1]; 30 mg/kg, Week 1): 299 ± 27 mg/dL
3-hydroxybutyric acid in plasma ([1]; 30 mg/kg, Week 4): 1888 ± 570
Plasma triglyceride concentration ([1]; 30 mg/kg, Week 4): 600 ± 59 mg/dL
Change in hemoglobin A1c (day 26 of administration) − (before start of administration) ([1]; 30 mg/kg): 1.10% and 2.61% and 0.359% and 0.580% and 0.200% and 1.37% and 0.484% and 1.14% and 1.05%
Hemoglobin A1c, Before start of administration ([1]; 30 mg/kg): 6.40% and 6.59% and 6.70% and 6.32% and 7.03% and 7.49% and 7.05% and 6.78% and 6.28%
Hemoglobin A1c, Day 26 of administration ([1]; 30 mg/kg): 7.50% and 9.21% and 7.05% and 6.90% and 7.23% and 8.86% and 7.54% and 7.91% and 7.32%
Amount of triglyceride in liver ([1]; 45 mg/kg): 211 ± 19 mg/g tissue
Sirius red-positive area rate ([1]; 45 mg/kg): 2.65 ± 0.34 %
3-hydroxybutyric acid in plasma ([1]; 45 mg/kg, Week 0): 291 ± 130
Plasma triglyceride concentration ([1]; 45 mg/kg, Week 0): 644 ± 89 mg/dL
3-hydroxybutyric acid in plasma ([1]; 45 mg/kg, Week 1): 829 ± 490
Plasma triglyceride concentration ([1]; 45 mg/kg, Week 1): 279 ± 40 mg/dL
3-hydroxybutyric acid in plasma ([1]; 45 mg/kg, Week 4): 1803 ± 640
Plasma triglyceride concentration ([1]; 45 mg/kg, Week 4): 572 ± 54 mg/dL
Change in hemoglobin A1c (day 26 of administration) − (before start of administration) ([1]; 45 mg/kg): 0.591% and 0.429% and −0.888% and −0.504% and 2.17% and 0.162% and 0.562% and 1.50% and 0.667%
Hemoglobin A1c, Before start of administration ([1]; 45 mg/kg): 6.58% and 6.74% and 7.06% and 5.77% and 5.87% and 7.03% and 6.43% and 6.83% and 7.47%
Hemoglobin A1c, Day 26 of administration ([1]; 45 mg/kg): 7.17% (2×) and 6.17% and 5.26% and 8.04% and 7.19% and 6.99% and 8.33% and 8.13%
Amount of triglyceride in liver ([1]; 60 mg/kg): 235 ± 20 mg/g tissue
Sirius red-positive area rate ([1]; 60 mg/kg): 2.75 ± 0.36 %
3-hydroxybutyric acid in plasma ([1]; 60 mg/kg, Week 0): 217 ± 28
Plasma triglyceride concentration ([1]; 60 mg/kg, Week 0): 829 ± 97 mg/dL
3-hydroxybutyric acid in plasma ([1]; 60 mg/kg, Week 1): 351 ± 72
Plasma triglyceride concentration ([1]; 60 mg/kg, Week 1): 322 ± 30 mg/dL
3-hydroxybutyric acid in plasma ([1]; 60 mg/kg, Week 4): 1260 ± 170
Plasma triglyceride concentration ([1]; 60 mg/kg, Week 4): 641 ± 86 mg/dL
Change in hemoglobin A1c (day 26 of administration) − (before start of administration) ([1]; 60 mg/kg): 0.493% and 0.0708% and 0.696% and 0.463% and 0.150% and −0.0552% and 0.719% and −0.0504%
Hemoglobin A1c, Before start of administration ([1]; 60 mg/kg): 5.50% and 6.36% and 6.46% and 6.60% and 7.12% and 6.80% and 6.55% and 5.83%
Hemoglobin A1c, Day 26 of administration ([1]; 60 mg/kg): 5.99% and 6.43% and 7.16% and 7.06% and 7.27% (2×) and 6.74% and 5.78%
Sirius red-positive area rate vs vehicle administration group (in words) ([1]; dose of 30, 45, or 60 mg/kg): significantly lower than that of the vehicle administration group
amount of triglyceride in the liver vs vehicle administration group (in words) ([1]; mouse, in vivo): not significantly different from that in the vehicle administration group
concentration of 3-hydroxybutyric acid in plasma vs vehicle administration group (in words) ([1]; mouse, in vivo): tended to be higher than that in the vehicle administration group
hemoglobin A1c (in words) ([1]; mouse, in vivo): tended to suppress an increase in hemoglobin A1c
plasma triglyceride concentration vs vehicle administration group (in words) ([1]; mouse, in vivo): not significantly different from that in the vehicle administration group
Malonyl-CoA concentration in organ with vehicle administration group defined as 100%, Liver ([2]; 0.3 mg/kg oral): 90.9%
Malonyl-CoA concentration in organ with vehicle administration group defined as 100%, Muscle ([2]; 0.3 mg/kg oral): 72.8%
Malonyl-CoA concentration in organ with vehicle administration group defined as 100%, Liver ([2]; 1 mg/kg oral): 86.5%
Malonyl-CoA concentration in organ with vehicle administration group defined as 100%, Muscle ([2]; 1 mg/kg oral): 64.9%
Malonyl-CoA concentration in organ with vehicle administration group defined as 100%, Liver ([2]; 3 mg/kg oral): 79.9%
Malonyl-CoA concentration in organ with vehicle administration group defined as 100%, Muscle ([2]; 3 mg/kg oral): 58.4%
malonyl-CoA concentrations in the liver and muscles (in words) [2]: reduced malonyl-CoA concentrations in the liver and muscles in a compound dose-dependent manner
IC50 [3]: 0.91 µM
